Measured values as given in PubChem BioAssay (NCI).
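The compound was tested at five concentrations on cells cultured in 96-well plates, with a 48-hour exposure period. GI50 = concentration required for 50% inhibition of growth. TGI: total growth inhibition.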

Experiments:
Test in all cases: growth of human tumour cells (NCI), 48 h
786-0 renal = system: 786-0 renal
COLO 205 colon = system: COLO 205 colon
DU-145 prostate = system: DU-145 prostate
MDA-MB-435 = system: MDA-MB-435
SK-OV-3 ovarian = system: SK-OV-3 ovarian
SN12C renal = system: SN12C renal
SR leukemia = system: SR leukemia
SW-620 colon = system: SW-620 colon
TK-10 renal = system: TK-10 renal
UO-31 renal = system: UO-31 renal

Structure (SMILES)	GI50 (786-0 renal)	TGI (786-0 renal)	GI50 (COLO 205 colon)	TGI (COLO 205 colon)	GI50 (DU-145 prostate)	TGI (DU-145 prostate)	GI50 (MDA-MB-435)	TGI (MDA-MB-435)	GI50 (SK-OV-3 ovarian)	TGI (SK-OV-3 ovarian)	GI50 (SN12C renal)	TGI (SN12C renal)	GI50 (SR leukemia)	TGI (SR leukemia)	GI50 (SW-620 colon)	TGI (SW-620 colon)	GI50 (TK-10 renal)	TGI (TK-10 renal)	GI50 (UO-31 renal)	TGI (UO-31 renal)
CNCCn1c(=O)c2cc(OC)c(OC)cc2c2ccc3cc4c(cc3c21)OCO4	0.109 µM	0.537 µM	0.0753 µM	0.735 µM	0.122 µM	2.51 µM	0.131 µM	0.708 µM	0.157 µM	1.32 µM	0.173 µM	3.97 µM	0.0173 µM	0.972 µM	0.0572 µM	3.09 µM	0.513 µM	1.56 µM	0.123 µM	0.543 µM
CN1C(=O)N(C)C2C1NN=c1s/c(=C\c3ccc(F)cc3)c(=O)n12 (centres undefined)	7.55 µM	> 100 µM	2.51 µM	> 100 µM	3.22 µM	> 100 µM	0.361 µM	1.71 µM	3.57 µM	> 100 µM	6.97 µM	> 100 µM	0.374 µM	20 µM	1.86 µM	> 100 µM	6.06 µM	> 100 µM	3.9 µM	> 100 µM
COC(=O)c1nc(Cl)nc(Cl)c1Cl	–	33.1 µM	–	36 µM	–	> 100 µM	–	29.3 µM	–	> 100 µM	–	45.1 µM	–	58.7 µM	–	38.5 µM	–	47.8 µM	–	35.7 µM
COc1ccc2cc(-c3c(-c4ccncc4)nc(-c4ccc(S(C)(=O)=O)cc4C)n3C)ccc2c1	11.4 µM	> 25 µM	8.25 µM	> 20.1 µM	10.2 µM	> 25 µM	9.18 µM	> 25 µM	6.5 µM	16.7 µM	8.22 µM	> 25 µM	13 µM	> 25 µM	9.68 µM	> 25 µM	5.82 µM	23.2 µM	4.4 µM	20.2 µM
COc1ccc(Cn2cc3c(c2)-c2oncc2CC3)cc1	13.2 µM	> 100 µM	3.59 µM	14.5 µM	4.46 µM	34.5 µM	0.635 µM	5.75 µM	4.92 µM	> 82.1 µM	10.1 µM	> 100 µM	1.41 µM	5.38 µM	2.8 µM	> 100 µM	8.76 µM	86.8 µM	5.16 µM	> 90.7 µM
NC(=O)c1cc2c3ccccc3ccn2c1-c1ccccc1	0.0775 µM	13.6 µM	0.454 µM	2.31 µM	0.0719 µM	2.54 µM	–	> 100 µM	0.0503 µM	12.7 µM	0.0889 µM	15.2 µM	0.0933 µM	3.75 µM	0.0357 µM	25 µM	0.719 µM	24 µM	0.708 µM	26.3 µM
Cc1cc2c(cc1C)N(C(=O)CCl)CCN2C(=O)CCl	0.657 µM	1.58 µM	0.484 µM	1.02 µM	1.54 µM	2.9 µM	1.02 µM	2.69 µM	1.9 µM	3.98 µM	0.754 µM	2.67 µM	0.421 µM	2.65 µM	0.204 µM	0.42 µM	1.79 µM	4.76 µM	1.52 µM	3.48 µM
CCOc1cccc(/C=N/NC(=O)C(=O)Nc2cccc(C(F)(F)F)c2)c1O	3.27 µM	41.3 µM	2.43 µM	> 100 µM	3.22 µM	> 100 µM	4.16 µM	> 100 µM	5.28 µM	> 100 µM	2.66 µM	> 100 µM	0.705 µM	15.4 µM	3.09 µM	> 100 µM	4.3 µM	> 100 µM	0.63 µM	18.5 µM
CCn1c(-c2nonc2N)nc2c(C#CC(C)(C)O)nc(OCCNC)cc21	7.98 µM	> 25 µM	4.84 µM	10.3 µM	8.53 µM	> 25 µM	8.58 µM	> 25 µM	5.74 µM	> 25 µM	7.84 µM	> 25 µM	9.56 µM	> 21.8 µM	6.68 µM	> 25 µM	6.35 µM	20.4 µM	8.9 µM	> 25 µM
CC(CCC(=O)O)C(=O)O (centres undefined)	–	> 100 µM	–	> 100 µM	–	> 100 µM	–	> 100 µM	–	> 100 µM	–	> 100 µM	–	> 100 µM	–	> 100 µM	–	> 100 µM	–	> 100 µM
